For one assay, the system named is Vaccinia virus. As to the kind of experiment: Antiviral activity against Vaccinia virus in HFF cells. It counts as functional, organism-based. The following applies: Orthopoxvirus vaccinia.
A further assay deals with HFF. As to the kind of experiment: Cytotoxicity in HFF cells. The settings on record: Homo sapiens. Type of assay: functional.
The next assay deals with Cowpox virus. Kind of assay: Antiviral activity against Cowpox virus in HFF cells. Type of assay: functional, organism-based.

Experimental findings from ChEMBL document CHEMBL1147756, “Synthesis and antiviral activity of 7-deazaneplanocin A against orthopoxviruses (vaccinia and cowpox virus)” (Bioorg Med Chem Lett, 2006) are described below.

As for `Nc1ncnc2c1ccn2[C@@H]1C=C(CO)[C@@H](O)[C@H]1O` [DEAZANEPLANOCIN A], in the assay with Vaccinia virus, a half-maximal response (EC50) required 3.4 µM and the EC90 – broadly, the concentration needed for an effect of 90% – was 21.5 µM. Besides, in the assay on HFF, the CC50 (in general, the concentration that lowers cell viability or growth by half) is above 300 µM. Further, in the assay on Cowpox virus, the concentration for a half-maximal effect (EC50) (as a rule, the concentration that produces a half-maximal response) came out at 1.2 µM and the EC90 came to 4.6 µM.

Regarding `Nc1ccn(C[C@@H](CO)OCP(=O)(O)O)c(=O)n1` [CIDOFOVIR], the EC50 in the assay with Vaccinia virus was determined as 4.8 µM; in the assay with Cowpox virus, 5 µM.
